Data taken from patent US7566727B2, “2-(1-aza-bicyclo[2.2.2]oct-3-yl)-2,3-dihydro-isoindole-1-one/5,6-dihydro-furo[2,3-c] pyrrol-4-one derivative ligands for alpha 7 nicotinic acetylcholine receptor” (priority 2004, dated 2009).

Each compound was assayed against α7 nAChR subtype (Rattus norvegicus, UniProt Q05941) (assay: Test A: 125I-α-Bungarotoxin binding to rat hippocampal membranes (affinity at α7 nAChR subtype)). Details: [125I]α-BTX displacement, rat hippocampal membranes.
Method: Test A—Assay for Affinity at α7 nAChR subtype
125I-α-Bungarotoxin (BTX) binding to rat hippocampal membranes. Rat hippocampi were homogenized in 20 volumes of cold homogenization buffer (HB: concentrations of constituents (mM): tris(hydroxymethyl)aminomethane 50; MgCl2 1; NaCl 120; KCl 5: pH 7.4). The homogenate was centrifuged for 5 minutes at 1000 g, the supernatant was saved and the pellet re-extracted. The pooled supernatants were centrifuged for 20 minutes at 12,000 g, washed, and re-suspended in HB. Membranes (30-80 μg) were incubated with 5 nM [^125I] α-BTX, 1 mg/mL BSA (bovine serum albumin), test drug, and either 2 mM CaCl2 or 0.5 mM EGTA [ethylene glycol-bis(β-aminoethylether)] for 2 hours at 21° C., and then filtered and washed 4 times over Whatman glass fibre filters (thickness C) using a Brandel cell harvester.
Binding data analysis for Tests A and B
IC50 values and pseudo Hill coefficients (nH) were calculated using the non-linear curve fitting program ALLFIT (DeLean A, Munson P J and Rodbard D (1977) Am. J. Physiol., 235:E97-E102). […] Ki values were determined using 6 or more drug concentrations.

α7 nAChR subtype, sequence (Q05941 23-502): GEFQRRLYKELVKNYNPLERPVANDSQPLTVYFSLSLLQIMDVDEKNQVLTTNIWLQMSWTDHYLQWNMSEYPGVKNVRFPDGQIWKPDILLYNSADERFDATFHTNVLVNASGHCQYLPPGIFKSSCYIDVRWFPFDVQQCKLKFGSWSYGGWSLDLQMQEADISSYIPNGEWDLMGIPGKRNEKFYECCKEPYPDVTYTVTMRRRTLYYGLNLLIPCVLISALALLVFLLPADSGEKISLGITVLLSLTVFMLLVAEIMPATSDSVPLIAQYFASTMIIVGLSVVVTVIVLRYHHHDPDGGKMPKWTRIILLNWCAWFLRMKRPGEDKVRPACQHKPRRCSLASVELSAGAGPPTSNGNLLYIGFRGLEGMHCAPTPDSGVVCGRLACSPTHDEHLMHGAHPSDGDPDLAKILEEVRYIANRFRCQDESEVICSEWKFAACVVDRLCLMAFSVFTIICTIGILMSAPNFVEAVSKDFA

| SMILES | Ki |
| --- | --- |
| CC(=O)Nc1ccccc1-c1ccc2c(c1)C(=O)N([C@H]1CN3CCC1CC3)C2 [Example 65, N-[2-((R)-2-1-Aza-bicyclo[2.2.2]oct-3-yl-3-oxo-2,3-dihydro-1H-isoindol-5-yl)-phenyl]-acetamide] | 1150 nM |
| CCN(CC)C(=O)c1cccc(-c2ccc3c(c2)C(=O)N([C@H]2CN4CCC2CC4)C3)c1 [Example 66, 3-((R)-2-1-Aza-bicyclo[2.2.2]oct-3-yl-3-oxo-2,3-dihydro-1H-isoindol-5-yl)-N,N-diethyl-benzamide] | 20 nM |
| O=C1c2cc(-c3cccc(OCc4ccccc4)c3)ccc2CN1[C@H]1CN2CCC1CC2 [Example 67, 2-(R)-1-Aza-bicyclo[2.2.2]oct-3-yl-6-(3-benzyloxy-phenyl)-2,3-dihydro-isoindol-1-one] | 51 nM |
| O=C(c1cccc(-c2ccc3c(c2)C(=O)N([C@H]2CN4CCC2CC4)C3)c1)N1CCOCC1 [Example 68, 2-(R)-1-Aza-bicyclo[2.2.2]oct-3-yl-6-[3-(morpholine-4-carbonyl)-phenyl]-2,3-dihydro-isoindol-1-one] | 44 nM |
| O=C(c1cccc(-c2ccc3c(c2)C(=O)N([C@H]2CN4CCC2CC4)C3)c1)N1CCCCC1 [Example 69, 2-(R)-1-Aza-bicyclo[2.2.2]oct-3-yl-6-[3-(piperidine-1-carbonyl)-phenyl]-2,3-dihydro-isoindol-1-one] | 23 nM |
| O=C(c1cccc(-c2ccc3c(c2)C(=O)N([C@H]2CN4CCC2CC4)C3)c1)N1CCCC1 [Example 70, 2-(R)-1-Aza-bicyclo[2.2.2]oct-3-yl-6-[3-(pyrrolidine-1-carbonyl)-phenyl]-2,3-dihydro-isoindol-1-one] | 14 nM |
| CN(C)c1cccc(-c2ccc3c(c2)C(=O)N([C@H]2CN4CCC2CC4)C3)c1 [Example 71, 2-(R)-1-Aza-bicyclo[2.2.2]oct-3-yl-6-(3-dimethylamino-phenyl)-2,3-dihydro-isoindol-1-one] | 4.2 nM |
| CSc1cccc(-c2ccc3c(c2)C(=O)N([C@H]2CN4CCC2CC4)C3)c1 [Example 72, 2-(R)-1-Aza-bicyclo[2.2.2]oct-3-yl-6-(3-methylsulfanyl-phenyl)-2,3-dihydro-isoindol-1-one] | 37 nM |
